Experimental data published in patent US9505786B2, “Substituted annulated triazines and use thereof” (BAYER INTELLECTUAL PROPERTY GMBH, priority 2012, dated 2016).
pIC50: −log10 of the molar value. Read-outs that look alike come from different tables or passages of the source.

Experiments:
aorta rings = assay: Vasorelaxant effect in vitro (phenylephrine-contracted aorta rings); conditions: rabbit aorta rings, organ bath, phenylephrine contraction, read-out: IC50 (concentration needed to reduce the phenylephrine contraction by 50%)
Procedure: B-1. Vasorelaxant Effect In Vitro
Rabbits are stunned by a blow to the neck and exsanguinated. The aorta is removed, freed from adhering tissue and divided into rings of a width of 1.5 mm. The rings are placed individually under an initial tension in 5 ml organ baths with Krebs-Henseleit solution which is at 37° C., is gassed with carbogen and has the following composition (in each case mM): sodium chloride: 119; potassium chloride: 4.8; calcium chloride dihydrate: 1; magnesium sulphate heptahydrate: 1.4; potassium dihydrogenphosphate: 1.2; sodium bicarbonate: 25; glucose: 10. The contractile force is determined with Statham UC2 cells, amplified and digitalized using A/D transducers (DAS-1802 HC, Keithley Instruments Munich), and recorded in parallel on linear recorders.
To produce a contraction, phenylephrine is added to the bath cumulatively in increasing concentration. After several control cycles, the substance to be investigated is added in each further run in increasing dosage in each case, and the height of the contraction achieved is compared with the height of the contraction reached in the last preceding run. This is used to calculate the concentration needed to reduce the magnitude of the control value by 50% (IC50 value). The standard administration volume is 5 μl; the DMSO content in the bath solution corresponds to 0.1%.

[1] = test system: recombinant guanylate cyclase reporter cell line; assay: Effect on a recombinant guanylate cyclase reporter cell line; type: cell-based
Procedure: B-2. Effect on a Recombinant Guanylate Cyclase Reporter Cell Line
The cellular activity of the compounds according to the invention is determined using a recombinant guanylate cyclase reporter cell line, as described in F. Wunder et al., Anal. Biochem. 339, 104-112 (2005).

[2] = target: human phosphodiesterase 5 (PDE 5) (Homo sapiens (Human), UniProt O76074); assay: Inhibition of human phosphodiesterase 5 (PDE 5), SPA assay; type: biochemical; conditions: PDE 5 preparation from human platelets, [8-3H] cGMP substrate
Procedure: B-6. Inhibition of Human Phosphodiesterase 5 (PDE 5)
PDE 5 preparations are obtained from human platelets by disruption (Microfluidizer®, 800 bar, 3 passes), followed by centrifugation (75 000 g, 60 min, 4° C.) and ion exchange chromatography of the supernatant on a Mono Q 10/10 column (linear sodium chloride gradient, elution with a 0.2-0.3M solution of sodium chloride in buffer (20 mM Hepes pH 7.2, 2 mM magnesium chloride). Fractions having PDE 5 activity are combined (PDE 5 preparation) and stored at −80° C.
To determine their in vitro action on human PDE 5, the test substances are dissolved in 100% DMSO and serially diluted. Typically, dilution series (1:3) from 200 μM to 0.091 μM are prepared (resulting final concentrations in the test: 4 μM to 0.0018 μM). In each case 2 μl of the diluted substance solutions are placed into the wells of microtitre plates (Isoplate-96/200W; Perkin Elmer). Subsequently, 50 μl of a dilution of the above-described PDE 5 preparation are added. The dilution of the PDE 5 preparation is chosen such that during the later incubation less than 70% of the substrate are converted (typical dilution: 1:100; dilution buffer: 50 mM Tris/hydrochloric acid pH 7.5, 8.3 mM magnesium chloride, 1.7 mM EDTA, 0.2% BSA). The substrate, [8-^3H] cyclic guanosine-3′,5′-monophosphate (1 μCi/μl; Perkin Elmer) is diluted 1:2000 with assay buffer (50 mM tris/hydrochloric acid pH 7.5, 8.3 mM magnesium chloride, 1.7 mM EDTA) to a concentration of 0.0005 μCi/μl. By addition of 50 μl (0.025 μCi) of the diluted substrate, the enzyme reaction is finally started. The test mixtures are incubated at room temperature for 60 min and the reaction is stopped by adding 25 μl of a suspension of 18 mg/ml yttrium scintillation proximity beads in water (phosphodiesterase beads for SPA assays, RPNQ 0150, Perkin Elmer). The microtitre plates are sealed with a film and left to stand at room temperature for 60 min. Subsequently, the plates are analysed for 30 s per well in a Microbeta scintillation counter (Perkin Elmer). IC50 values are determined using the graphic plot of the substance concentration against percentage PDE 5 inhibition.

SMILES	pIC50 (aorta rings; Oryctolagus cuniculus)	pIC50 [2]	pIC50 (aorta rings)	MEC (minimum effective concentration) [1] [nM]
CC1(COCc2ccccc2)C(=O)Nc2nc(-c3nn(Cc4ccccc4F)c4ncc(F)cc34)nnc21 (racemic) [Example 6, 7-[(Benzyloxy)methyl]-3-[5-fluoro-1-(2-fluorobenzyl)-1H-pyrazolo[3,4-b]pyridin-3-yl]-7-methyl-5,7-dihydro-6H-pyrrolo[2,3-e][1,2,4]triazin-6-one (racemate)]	6.61	5.96	–	100
CCC1(C)C(=O)Nc2nc(-c3nn(Cc4ccccc4F)c4ncc(F)cc34)nnc21 (racemic) [Example 7, 7-Ethyl-3-[5-fluoro-1-(2-fluorobenzyl)-1H-pyrazolo[3,4-b]pyridin-3-yl]-7-methyl-5,7-dihydro-6H-pyrrolo[2,3-e][1,2,4]triazin-6-one (racemate)]	7.39	6.47	–	30
CC1(c2nncs2)C(=O)Nc2nc(-c3nn(Cc4ccccc4F)c4ncccc34)ncc21 (racemic) [Example 34, (rac) 2-[1-(2-Fluorobenzyl)-1H-pyrazolo[3,4-b]pyridin-3-yl]-5-methyl-5-(1,3,4-thiadiazol-2-yl)-5,7-dihydro-6H-pyrrolo[2,3-d]pyrimidin-6-one]	6.66	5.92	–	30
CCOC(=O)C1(C)C(=O)Nc2nc(-c3nn(Cc4ccccc4F)c4ncccc34)nc(I)c21 (racemic) [Example 43, (rac) Ethyl 2-[1-(2-fluorobenzyl)-1H-pyrazolo[3,4-b]pyridin-3-yl]-4-iodo-5-methyl-6-oxo-6,7-dihydro-5H-pyrrolo[2,3-d]pyrimidine-5-carboxylate]	6.01	5.76	–	100
CC1(CC2CC2)C(=O)Nc2nc(-c3nn(Cc4ccccc4F)c4ncc(F)cc34)nnc21 (single isomer, unassigned) [Example 5-1, 7-(Cyclopropylmethyl)-3-[5-fluoro-1-(2-fluorobenzyl)-1H-pyrazolo[3,4-b]pyridin-3-yl]-7-methyl-5,7-dihydro-6H-pyrrolo[2,3-e][1,2,4]triazin-6-one]	–	6.46	6.49	–
CCC1(C)C(=O)Nc2nc(-c3nn(Cc4ccccc4F)c4ncc(F)cc34)nnc21 (single isomer, unassigned) [Example 7-2, 7-Ethyl-3-[5-fluoro-1-(2-fluorobenzyl)-1H-pyrazolo[3,4-b]pyridin-3-yl]-7-methyl-5,7-dihydro-6H-pyrrolo[2,3-e][1,2,4]triazin-6-one]	–	6.46	6.73	–
NC1(C(F)(F)F)C(=O)Nc2nc(-c3nn(Cc4ccccc4F)c4ncccc34)ncc21 (stereo not shown) [Example 1, 5-Amino-2-[1-(2-fluorobenzyl)-1H-pyrazolo[3,4-b]pyridin-3-yl]-5-(trifluoromethyl)-5,7-dihydro-6H-pyrrolo[2,3-d]pyrimidin-6-one]	7.43	5.92	–	30
O=C1Nc2nc(-c3nn(Cc4ccccc4F)c4ncccc34)ncc2C1(O)C(F)(F)C(F)(F)F (stereo not shown) [Example 3, 2-[1-(2-Fluorobenzyl)-1H-pyrazolo[3,4-b]pyridin-3-yl]-5-hydroxy-5-(pentafluoroethyl)-5,7-dihydro-6H-pyrrolo[2,3-d]pyrimidin-6-one]	6.58	5.62	–	30
NC1(C(F)(F)C(F)(F)F)C(=O)Nc2nc(-c3nn(Cc4ccccc4F)c4ncccc34)ncc21 (stereo not shown) [Example 4, 5-Amino-2-[1-(2-fluorobenzyl)-1H-pyrazolo[3,4-b]pyridin-3-yl]-5-(pentafluoroethyl)-5,7-dihydro-6H-pyrrolo[2,3-d]pyrimidin-6-one]	6.67	5.89	–	100

The next molecules have a higher pIC50 [2] than those just listed; values first:

pIC50 (aorta rings; Oryctolagus cuniculus)	pIC50 [2]	pIC50 (aorta rings)	SMILES	MEC (minimum effective concentration) [1] [nM]
6.86	6.59	–	CC1(CC2CC2)C(=O)Nc2nc(-c3nn(Cc4ccccc4F)c4ncc(F)cc34)nnc21 (racemic) [Example 5, 7-(Cyclopropylmethyl)-3-[5-fluoro-1-(2-fluorobenzyl)-1H-pyrazolo[3,4-b]pyridin-3-yl]-7-methyl-5,7-dihydro-6H-pyrrolo[2,3-e][1,2,4]triazin-6-one (racemate)]	100
6.68	6.51	–	C=CCC1(C)C(=O)Nc2nc(-c3nn(Cc4ccccc4F)c4ncccc34)nnc21 (racemic) [Example 28, (rac) 7-Allyl-3-[1-(2-fluorobenzyl)-1H-pyrazolo[3,4-b]pyridin-3-yl]-7-methyl-5,7-dihydro-6H-pyrrolo[2,3-e][1,2,4]triazin-6-one]	30
6.38	6.85	–	C=CCC1(C)C(=O)Nc2nc(-c3nn(Cc4ccccc4F)c4ncc(F)cc34)nnc21 (racemic) [Example 51, (rac) 7-Allyl-3-[5-fluoro-1-(2-fluorobenzyl)-1H-pyrazolo[3,4-b]pyridin-3-yl]-7-methyl-5,7-dihydro-6H-pyrrolo[2,3-e][1,2,4]triazin-6-one]	30
–	6.60	6.18	CC1(CC2CC2)C(=O)Nc2nc(-c3nn(Cc4ccccc4F)c4ncc(F)cc34)nnc21 (single isomer, unassigned) [Example 5-2, 7-(Cyclopropylmethyl)-3-[5-fluoro-1-(2-fluorobenzyl)-1H-pyrazolo[3,4-b]pyridin-3-yl]-7-methyl-5,7-dihydro-6H-pyrrolo[2,3-e][1,2,4]triazin-6-one]	–
–	6.70	7.23	CCC1(C)C(=O)Nc2nc(-c3nn(Cc4ccccc4F)c4ncc(F)cc34)nnc21 (single isomer, unassigned) [Example 7-1, 7-Ethyl-3-[5-fluoro-1-(2-fluorobenzyl)-1H-pyrazolo[3,4-b]pyridin-3-yl]-7-methyl-5,7-dihydro-6H-pyrrolo[2,3-e][1,2,4]triazin-6-one]	–
–	7.39	–	CCOC(=O)C#Cc1nc(-c2nn(Cc3ccccc3F)c3ncccc23)nc2c1C(C)(C)C(=O)N2 [Example 53, Ethyl 3-{2-[1-(2-fluorobenzyl)-1H-pyrazolo[3,4-b]pyridin-3-yl]-5,5-dimethyl-6-oxo-6,7-dihydro-5H-pyrrolo[2,3-d]pyrimidin-4-yl}prop-2-ynoate]	100
–	6.84	–	CC1(C)C(=O)Nc2nc(-c3nn(Cc4ccccc4F)c4ncc(F)cc34)nc(CN3CCCC3=O)c21 [Example 54, 2-[5-Fluoro-1-(2-fluorobenzyl)-1H-pyrazolo[3,4-b]pyridin-3-yl]-5,5-dimethyl-4-[(2-oxopyrrolidin-1-yl)methyl]-5,7-dihydro-6H-pyrrolo[2,3-d]pyrimidin-6-one]	100
–	6.72	–	CC1(C)C(=O)Nc2nc(-c3nn(Cc4ccccc4F)c4ncc(F)cc34)nc(CNS(=O)(=O)C3CC3)c21 [Example 55, N-({2-[5-Fluoro-1-(2-fluorobenzyl)-1H-pyrazolo[3,4-b]pyridin-3-yl]-5,5-dimethyl-6-oxo-6,7-dihydro-5H-pyrrolo[2,3-d]pyrimidin-4-yl}methyl)cyclopropanesulphonamide]	30
–	7.82	–	CC1(C)C(=O)Nc2nc(-c3nn(Cc4ccccc4F)c4ncccc34)nc(CC(N)=O)c21 [Example 61, 2-{2-[1-(2-Fluorobenzyl)-1H-pyrazolo[3,4-b]pyridin-3-yl]-5,5-dimethyl-6-oxo-6,7-dihydro-5H-pyrrolo[2,3-d]pyrimidin-4-yl}acetamide]	30
